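Step 1: Grow cells in 96-well plates. Step 2: Expose to compound for 48 hours at 5 concentrations. Step 3: Interpolate endpoints linearly; if unreached, use highest concentration. The concentration for full growth arrest is given as TGI.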
Legend:
Test in all cases: DTP human tumour cell line panel, 48 h
SF-295 CNS = test system: SF-295 CNS
HCC-2998 colon = test system: HCC-2998 colon
LOX IMVI melanoma = test system: LOX IMVI melanoma
SF-539 CNS = test system: SF-539 CNS
SK-MEL-5 melanoma = test system: SK-MEL-5 melanoma
NCI/ADR-RES ovarian = test system: NCI/ADR-RES ovarian
HCT-116 colon = test system: HCT-116 colon
OVCAR-4 ovarian = test system: OVCAR-4 ovarian
SNB-75 CNS = test system: SNB-75 CNS
DU-145 prostate = test system: DU-145 prostate

Row | Compound | TGI (SF-295 CNS) | TGI (HCC-2998 colon) | TGI (LOX IMVI melanoma) | TGI (SF-539 CNS) | TGI (SK-MEL-5 melanoma) | TGI (NCI/ADR-RES ovarian) | TGI (HCT-116 colon) | TGI (OVCAR-4 ovarian) | TGI (SNB-75 CNS) | TGI (DU-145 prostate)
1 | COP(=O)(CP(=O)(OC)OCCC(C)CCC=C(C)C)OC (stereo not drawn) | > 100 µM | > 100 µM | > 100 µM | > 100 µM | > 100 µM | > 100 µM | > 100 µM | > 100 µM | > 100 µM | 
2 | CC1(C)CC(=O)C(CC2C(=O)CCCC2=O)C(=O)C1 | > 100 µM | > 100 µM | > 100 µM | > 100 µM | > 100 µM |  | > 100 µM | > 100 µM | > 100 µM | 
3 | C/C(=N\N=C(N)N)C(CN1CCOCC1)C(c1ccccc1)c1c(O)c2ccccc2oc1=O (stereo not drawn) | > 100 µM | > 100 µM | > 100 µM | > 100 µM | > 100 µM |  | > 100 µM | > 100 µM | 99.4 µM | 
4 | O=S(=O)(O)c1ccc(O)c(N=Nc2c(O)ccc3ccccc23)c1 | > 100 µM |  | > 100 µM |  | > 100 µM | > 100 µM | > 100 µM | > 100 µM | > 100 µM | > 100 µM
5 | O=C1Sc2ccccc2C(=O)N2CCSC12 (stereo not drawn) | > 100 µM | > 100 µM | > 100 µM |  | > 100 µM |  | > 100 µM |  |  | 
6 | CC(=O)NC1C(OCc2ccccc2)OC(CO)C(O)C1OC(C)C(=O)NC(C(=O)NC(CCC(=O)NCCCNc1ccc([N+](=O)[O-])c2[nH]c3ccccc3c(=O)c12)C(N)=O)C(C)C (stereo not drawn) | > 100 µM |  | > 100 µM | > 100 µM | > 100 µM | > 100 µM | > 100 µM | > 100 µM | > 100 µM | > 100 µM
7 | O=C1CCC2(O)c3ccccc3C2Cc2ccccc21 (stereo not drawn) | > 100 µM | > 100 µM | > 100 µM | > 100 µM |  |  | > 100 µM |  | > 100 µM | 
8 | CC(=O)C(CN1C(=O)c2ccccc2C1=O)C(C)=O | > 100 µM | > 100 µM |  | > 100 µM | > 100 µM |  | > 100 µM | > 100 µM | > 100 µM | > 100 µM
9 | Cc1cc(N(CCC#N)CCC#N)ccc1/C(N=Nc1ccc(C(=O)O)cc1)=N\NC(=O)c1ccccc1 | > 100 µM | > 100 µM |  | 57 µM | > 100 µM | > 100 µM | > 100 µM | > 100 µM | > 100 µM | > 100 µM
10 | COc1ccc(NC(=O)CSC(=O)c2ccccc2)c(SCCSSCCSc2cc(OC)ccc2NC(=O)CSC(=O)c2ccccc2)c1 | > 100 µM |  | > 100 µM | > 100 µM | > 100 µM | > 100 µM | > 100 µM | 83.7 µM | > 100 µM | > 100 µM
11 | O=C(O)C(Cc1ccccc1)Cc1ccccc1 | > 100 µM |  | > 100 µM | > 100 µM | > 100 µM | > 100 µM | > 100 µM | > 100 µM | > 100 µM | > 100 µM
